From patent US9428514B2, “Bromodomain inhibitors” (AbbVie Inc., priority 2013, dated 2016)

Test system: breast cancer cell line MX-1
Experiment: MX-1 cell line proliferation assay (3-day, Cell Titer Glo)
Type: cell-based
Conditions: Homo sapiens, MX1, MX-1 cells, 72 hours, read-out: Cellular proliferation: EC50
Procedure: The impact of compounds of the Examples on cancer cell proliferation was determined using the breast cancer cell line MX-1 (ATCC) in a 3-day proliferation assay. MX-1 cells were maintained in RPMI supplemented with 10% FBS at 37° C. and an atmosphere of 5% CO2. For compound testing, MX-1 cells were plated in 96-well black bottom plates at a density of 5000 cells/well in 90 μL of culture media and incubated at 37° overnight to allow cell adhesion and spreading. Compound dilution series were prepared in DMSO via a 3-fold serial dilution from 3 mM to […]. The DMSO dilution series were then diluted 1:100 in phosphate buffered saline, and 10 μL of the resulted solution were added to the appropriate wells of the MX-1 cell plate. The final compound concentrations in the wells were 3, 1, 0.3, 0.1, 0.03, 0.01, 0.003, 0.001, 0.0003, 0.0001, and 0.00003 μM.
Luminescence readings from the Cell Titer Glo assay were normalized to the DMSO treated cells and analyzed using the GraphPad Prism software with sigmoidal curve fitting to obtain EC50s. The minimum significant ratio (MSR) was determined to evaluate assay reproducibility (Eastwood et al., (2006) J Biomol Screen, 11: 253-261). The overall MSR was determined to be 2.1 and a moving MSR (last six run MSR overtime) has been <2. The EC50 values are reported in Table 1 for the indicated compounds.

| EC50 [µM] | Structure (SMILES) |
| --- | --- |
| 0.678 | CCOc1cc(=O)n(C)cc1-c1cc(NC(=O)Cc2ccc(-c3ccccc3)cc2)ccc1Oc1ccc(F)cc1F [Example 42, 2-(biphenyl-4-yl)-N-[4-(2,4-difluorophenoxy)-3-(4-ethoxy-1-methyl-6-oxo-1,6-dihydropyridin-3-yl)phenyl]acetamide] |
| 0.981 | CCOc1cc(=O)n(C)cc1-c1cc(NC(=O)Cc2ccc(OCc3ccccc3)cc2)ccc1Oc1ccc(F)cc1F [Example 45, 2-[4-(benzyloxy)phenyl]-N-[4-(2,4-difluorophenoxy)-3-(4-ethoxy-1-methyl-6-oxo-1,6-dihydropyridin-3-yl)phenyl]acetamide] |
| 0.449 | CCOc1cc(=O)n(C)cc1-c1cc(NC(=O)Cc2ccccc2OC)ccc1Oc1ccc(F)cc1F [Example 46, N-[4-(2,4-difluorophenoxy)-3-(4-ethoxy-1-methyl-6-oxo-1,6-dihydropyridin-3-yl)phenyl]-2-(2-methoxyphenyl)acetamide] |
| 0.712 | CCOc1cc(=O)n(C)cc1-c1cc(NCc2ccccc2C#N)ccc1Oc1ccc(F)cc1F [Example 57, 2-({[4-(2,4-difluorophenoxy)-3-(4-ethoxy-1-methyl-6-oxo-1,6-dihydropyridin-3-yl)phenyl]amino}methyl)benzonitrile] |
| 0.508 | CCOc1cc(=O)n(C)cc1-c1cc(NCc2ccc(F)cc2)ccc1Oc1ccc(F)cc1F [Example 64, 5-{2-(2,4-difluorophenoxy)-5-[(4-fluorobenzyl)amino]phenyl}-4-ethoxy-1-methylpyridin-2(1H)-one] |
| > 1 | CCOc1cc(=O)n(C)cc1-c1cc(N(CC2CC2)S(=O)(=O)Cc2cc(F)ccc2Cl)ccc1Oc1ccc(F)cc1F [Example 66, 1-(2-chloro-5-fluorophenyl)-N-(cyclopropylmethyl)-N-[4-(2,4-difluorophenoxy)-3-(4-ethoxy-1-methyl-6-oxo-1,6-dihydropyridin-3-yl)phenyl]methanesulfonamide] |
| > 1 | CCOc1cc(=O)n(C)cc1-c1cc(N(CC2CC2)C(=O)Cc2cc(F)ccc2Cl)ccc1Oc1ccc(F)cc1F [Example 67, 2-(2-chloro-5-fluorophenyl)-N-(cyclopropylmethyl)-N-[4-(2,4-difluorophenoxy)-3-(4-ethoxy-1-methyl-6-oxo-1,6-dihydropyridin-3-yl)phenyl]acetamide] |
| > 1 | CCOc1cc(=O)n(C)cc1-c1cc(NC(=O)C(C)c2cc(F)ccc2Cl)ccc1Oc1ccc(F)cc1F (stereo not drawn) [Example 70, 2-(2-chloro-5-fluorophenyl)-N-[4-(2,4-difluorophenoxy)-3-(4-ethoxy-1-methyl-6-oxo-1,6-dihydropyridin-3-yl)phenyl]propanamide] |
| > 1 | CCOc1cc(=O)n(C)cc1-c1cc(N(C)C(=O)Cc2cc(F)ccc2Cl)ccc1Oc1ccc(F)cc1F [Example 71, 2-(2-chloro-5-fluorophenyl)-N-[4-(2,4-difluorophenoxy)-3-(4-ethoxy-1-methyl-6-oxo-1,6-dihydropyridin-3-yl)phenyl]-N-methylacetamide] |
| 0.233 | CCOc1cc(=O)n(C)cc1-c1cc(N(CC2CC2)S(=O)(=O)CC)ccc1Oc1ccc(F)cc1F [Example 72, N-(cyclopropylmethyl)-N-[4-(2,4-difluorophenoxy)-3-(4-ethoxy-1-methyl-6-oxo-1,6-dihydropyridin-3-yl)phenyl]ethanesulfonamide] |
| > 1 | CCOc1cc(=O)n(C)cc1-c1cc(N(Cc2ccccc2)S(=O)(=O)CC)ccc1Oc1ccc(F)cc1F [Example 73, N-benzyl-N-[4-(2,4-difluorophenoxy)-3-(4-ethoxy-1-methyl-6-oxo-1,6-dihydropyridin-3-yl)phenyl]ethanesulfonamide] |
| 0.464 | CCOc1cc(=O)n(C)cc1-c1cc(N(Cc2ccccc2Cl)S(=O)(=O)CC)ccc1Oc1ccc(F)cc1F [Example 74, N-(2-chlorobenzyl)-N-[4-(2,4-difluorophenoxy)-3-(4-ethoxy-1-methyl-6-oxo-1,6-dihydropyridin-3-yl)phenyl]ethanesulfonamide] |
| 0.614 | CCOc1cc(=O)n(C)cc1-c1cc(N(CCc2ccccc2)S(=O)(=O)CC)ccc1Oc1ccc(F)cc1F [Example 75, N-[4-(2,4-difluorophenoxy)-3-(4-ethoxy-1-methyl-6-oxo-1,6-dihydropyridin-3-yl)phenyl]-N-(2-phenylethyl)ethanesulfonamide] |
| > 1 | CCOc1cc(=O)n(C)cc1-c1cc(N(CC2CC2)S(=O)(=O)Cc2ccccc2)ccc1Oc1ccc(F)cc1F [Example 76, N-(cyclopropylmethyl)-N-[4-(2,4-difluorophenoxy)-3-(4-ethoxy-1-methyl-6-oxo-1,6-dihydropyridin-3-yl)phenyl]-1-phenylmethanesulfonamide] |
| > 1 | CCOc1cc(=O)n(C)cc1-c1cc(N(Cc2ccccc2)S(=O)(=O)Cc2ccccc2)ccc1Oc1ccc(F)cc1F [Example 77, N-benzyl-N-[4-(2,4-difluorophenoxy)-3-(4-ethoxy-1-methyl-6-oxo-1,6-dihydropyridin-3-yl)phenyl]-1-phenylmethanesulfonamide] |
| > 1 | CCOc1cc(=O)n(C)cc1-c1cc(N(Cc2ccccc2Cl)S(=O)(=O)Cc2ccccc2)ccc1Oc1ccc(F)cc1F [Example 78, N-(2-chlorobenzyl)-N-[4-(2,4-difluorophenoxy)-3-(4-ethoxy-1-methyl-6-oxo-1,6-dihydropyridin-3-yl)phenyl]-1-phenylmethanesulfonamide] |
| > 1 | CCOc1cc(=O)n(C)cc1-c1cc(N(CCc2ccccc2)S(=O)(=O)Cc2ccccc2)ccc1Oc1ccc(F)cc1F [Example 79, N-[4-(2,4-difluorophenoxy)-3-(4-ethoxy-1-methyl-6-oxo-1,6-dihydropyridin-3-yl)phenyl]-1-phenyl-N-(2-phenylethyl)methanesulfonamide] |
| > 1 | CCOc1cc(=O)n(C)cc1-c1cc(N(CCc2ccccc2Cl)S(=O)(=O)CC)ccc1Oc1ccc(F)cc1F [Example 80, N-[2-(2-chlorophenyl)ethyl]-N-[4-(2,4-difluorophenoxy)-3-(4-ethoxy-1-methyl-6-oxo-1,6-dihydropyridin-3-yl)phenyl]ethanesulfonamide] |
| > 1 | CCOc1cc(=O)n(C)cc1-c1cc(NC(=O)Cn2ccc(-c3ccccc3)n2)ccc1Oc1ccc(F)cc1F [Example 81, N-[4-(2,4-difluorophenoxy)-3-(4-ethoxy-1-methyl-6-oxo-1,6-dihydropyridin-3-yl)phenyl]-2-(3-phenyl-1H-pyrazol-1-yl)acetamide] |
| > 1 | CCOc1cc(=O)n(C)cc1-c1cc(NC(=O)Cc2cc(Cl)ccc2F)ccc1Oc1ccc(F)cc1F [Example 82, 2-(5-chloro-2-fluorophenyl)-N-[4-(2,4-difluorophenoxy)-3-(4-ethoxy-1-methyl-6-oxo-1,6-dihydropyridin-3-yl)phenyl]acetamide] |
| 0.304 | CCOc1cc(=O)n(C)cc1-c1cc(NC(=O)Cc2csc(C)n2)ccc1Oc1ccc(F)cc1F [Example 83, N-[4-(2,4-difluorophenoxy)-3-(4-ethoxy-1-methyl-6-oxo-1,6-dihydropyridin-3-yl)phenyl]-2-(2-methyl-1,3-thiazol-4-yl)acetamide] |
| > 1 | CCOc1cc(=O)n(C)cc1-c1cc(N(Cc2nccs2)S(=O)(=O)Cc2ccccc2)ccc1Oc1ccc(F)cc1F [Example 90, N-[4-(2,4-difluorophenoxy)-3-(4-ethoxy-1-methyl-6-oxo-1,6-dihydropyridin-3-yl)phenyl]-1-phenyl-N-(1,3-thiazol-2-ylmethyl)methanesulfonamide] |
| 0.505 | CCOc1cc(=O)n(C)cc1-c1cc(N(Cc2cccnc2)S(=O)(=O)CC)ccc1Oc1ccc(F)cc1F [Example 91, N-[4-(2,4-difluorophenoxy)-3-(4-ethoxy-1-methyl-6-oxo-1,6-dihydropyridin-3-yl)phenyl]-N-(pyridin-3-ylmethyl)ethanesulfonamide] |
| > 1 | CCOc1cc(=O)n(C)cc1-c1cc(N(Cc2cccnc2)S(=O)(=O)Cc2ccccc2)ccc1Oc1ccc(F)cc1F [Example 92, N-[4-(2,4-difluorophenoxy)-3-(4-ethoxy-1-methyl-6-oxo-1,6-dihydropyridin-3-yl)phenyl]-1-phenyl-N-(pyridin-3-ylmethyl)methanesulfonamide] |
| > 1 | CCOc1cc(=O)n(C)cc1-c1cc(N(Cc2cncnc2)S(=O)(=O)CC)ccc1Oc1ccc(F)cc1F [Example 93, N-[4-(2,4-difluorophenoxy)-3-(4-ethoxy-1-methyl-6-oxo-1,6-dihydropyridin-3-yl)phenyl]-N-(pyrimidin-5-ylmethyl)ethanesulfonamide] |
| > 1 | CCOc1cc(=O)n(C)cc1-c1cc(N(Cc2cnccn2)S(=O)(=O)CC)ccc1Oc1ccc(F)cc1F [Example 95, N-[4-(2,4-difluorophenoxy)-3-(4-ethoxy-1-methyl-6-oxo-1,6-dihydropyridin-3-yl)phenyl]-N-(pyrazin-2-ylmethyl)ethanesulfonamide] |
| > 1 | CCOc1cc(=O)n(C)cc1-c1cc(N(Cc2cnccn2)S(=O)(=O)Cc2ccccc2)ccc1Oc1ccc(F)cc1F [Example 96, N-[4-(2,4-difluorophenoxy)-3-(4-ethoxy-1-methyl-6-oxo-1,6-dihydropyridin-3-yl)phenyl]-1-phenyl-N-(pyrazin-2-ylmethyl)methanesulfonamide] |
